Data from patent publication US20030203975A1, “Anti-cancer agents” (priority 1998, published 2003).

Key:
Topoisomerase IIβ [1] = molecular target: T1, Topoisomerase IIβ (Homo sapiens, UniProt Q02880); experiment: Topo II decatenation assay; type: biochemical; conditions: unit not given; kDNA substrate; compound at 1, 10, 25 and 50 μM in protocol
Procedure: Topisomerase Decatenation Assay.
This method uses catenated DNA substrate prepared from the kinetoplast of the insect trypanosome Crithidia fasciculata. Upon incubation with topo II, which engages DNA in a double stranded breakage-reunion cycle, DNA minicircles are released. Addition of topo-inhibiting drugs may prevent decatenation.
Topo II Decatenation Assay Protocol
This assay is the same as the Topo II Relaxation assay except that the pBR 322 Plasmid DNA is replaced with kDNA.
Results are included in Table 3 below

Topoisomerase I [2] = molecular target: T2, Topoisomerase I (Homo sapiens, UniProt P11387); experiment: Topo I relaxation assay; type: biochemical; conditions: unit not given; compound at 1, 10, 25 and 50 μM in protocol
T2 sequence (P11387 1-765): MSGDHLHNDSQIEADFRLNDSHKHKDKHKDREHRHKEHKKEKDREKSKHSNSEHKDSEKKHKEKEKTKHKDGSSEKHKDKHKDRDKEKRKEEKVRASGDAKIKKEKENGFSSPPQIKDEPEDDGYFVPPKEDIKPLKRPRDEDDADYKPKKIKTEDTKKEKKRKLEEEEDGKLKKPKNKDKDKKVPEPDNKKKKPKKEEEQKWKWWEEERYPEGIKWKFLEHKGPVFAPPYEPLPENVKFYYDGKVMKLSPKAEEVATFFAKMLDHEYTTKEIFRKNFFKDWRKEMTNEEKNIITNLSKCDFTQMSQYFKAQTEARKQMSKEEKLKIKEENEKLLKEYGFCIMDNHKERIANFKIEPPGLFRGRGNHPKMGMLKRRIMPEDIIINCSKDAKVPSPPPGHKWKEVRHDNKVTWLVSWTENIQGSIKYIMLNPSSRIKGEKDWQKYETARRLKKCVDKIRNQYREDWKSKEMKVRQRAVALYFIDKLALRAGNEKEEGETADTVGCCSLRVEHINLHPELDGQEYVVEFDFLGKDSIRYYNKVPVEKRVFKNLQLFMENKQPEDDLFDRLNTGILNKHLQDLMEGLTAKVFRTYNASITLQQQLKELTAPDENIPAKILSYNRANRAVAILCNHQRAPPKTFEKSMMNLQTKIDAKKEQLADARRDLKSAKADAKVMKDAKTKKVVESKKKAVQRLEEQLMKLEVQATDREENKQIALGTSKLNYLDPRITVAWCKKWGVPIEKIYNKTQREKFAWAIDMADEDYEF
Text: Topo I Relaxation Assay Protocol.

Topoisomerase IIβ [3] = molecular target: T1, Topoisomerase IIβ; experiment: Topo II cleavage assay; type: biochemical; conditions: unit not given; compound at 1, 10, 25 and 50 μM in protocol
Procedure: Topo II 5 μl (1-1 μg); […] Results are included in Table 3 below.

Topoisomerase I [4] = molecular target: T2, Topoisomerase I; experiment: Topo I cleavage assay; type: biochemical; conditions: for TopI Cleave: unit not given, compound at 1, 10, 25 and 50 μM in protocol
[5] = In vitro cytotoxicity against CHO cell lines (MTT assay); type: cell-based; conditions: Chinese hamster, MTT assay after 24 hours exposure
Procedure: Chinese Hamster Ovary (CHO) cell lines were grown as monolayers in Ham's F-10 nutrient mixture supplemented with 5% foetal calf serum and 5% heat-inactivated newborn calf serum. All experiments were performed on cells within 10 passages of each other, during which period phenotypes remained stable. All anthraquinone/amino acid conjugates were dissolved in water and not more than 0.01% DMSO. Activity was determined by an MTT assay after 24 hours exposure using essentially the method of Plumb et al (Plumb, J., Milroy, R and Kaye, S. B., 1989, Effects of the pH dependence of 3-([…])-2,5-diphenyl tetrazolium bromide formazan absorption on chemosensitivity, Cancer Research, 49: 4435-4440). Characteristics of the cell lines are described in full in Cummings et al 1996, Biochem.Pharmacol. 52: 979-990.

T1 sequence (Q02880 whole entry): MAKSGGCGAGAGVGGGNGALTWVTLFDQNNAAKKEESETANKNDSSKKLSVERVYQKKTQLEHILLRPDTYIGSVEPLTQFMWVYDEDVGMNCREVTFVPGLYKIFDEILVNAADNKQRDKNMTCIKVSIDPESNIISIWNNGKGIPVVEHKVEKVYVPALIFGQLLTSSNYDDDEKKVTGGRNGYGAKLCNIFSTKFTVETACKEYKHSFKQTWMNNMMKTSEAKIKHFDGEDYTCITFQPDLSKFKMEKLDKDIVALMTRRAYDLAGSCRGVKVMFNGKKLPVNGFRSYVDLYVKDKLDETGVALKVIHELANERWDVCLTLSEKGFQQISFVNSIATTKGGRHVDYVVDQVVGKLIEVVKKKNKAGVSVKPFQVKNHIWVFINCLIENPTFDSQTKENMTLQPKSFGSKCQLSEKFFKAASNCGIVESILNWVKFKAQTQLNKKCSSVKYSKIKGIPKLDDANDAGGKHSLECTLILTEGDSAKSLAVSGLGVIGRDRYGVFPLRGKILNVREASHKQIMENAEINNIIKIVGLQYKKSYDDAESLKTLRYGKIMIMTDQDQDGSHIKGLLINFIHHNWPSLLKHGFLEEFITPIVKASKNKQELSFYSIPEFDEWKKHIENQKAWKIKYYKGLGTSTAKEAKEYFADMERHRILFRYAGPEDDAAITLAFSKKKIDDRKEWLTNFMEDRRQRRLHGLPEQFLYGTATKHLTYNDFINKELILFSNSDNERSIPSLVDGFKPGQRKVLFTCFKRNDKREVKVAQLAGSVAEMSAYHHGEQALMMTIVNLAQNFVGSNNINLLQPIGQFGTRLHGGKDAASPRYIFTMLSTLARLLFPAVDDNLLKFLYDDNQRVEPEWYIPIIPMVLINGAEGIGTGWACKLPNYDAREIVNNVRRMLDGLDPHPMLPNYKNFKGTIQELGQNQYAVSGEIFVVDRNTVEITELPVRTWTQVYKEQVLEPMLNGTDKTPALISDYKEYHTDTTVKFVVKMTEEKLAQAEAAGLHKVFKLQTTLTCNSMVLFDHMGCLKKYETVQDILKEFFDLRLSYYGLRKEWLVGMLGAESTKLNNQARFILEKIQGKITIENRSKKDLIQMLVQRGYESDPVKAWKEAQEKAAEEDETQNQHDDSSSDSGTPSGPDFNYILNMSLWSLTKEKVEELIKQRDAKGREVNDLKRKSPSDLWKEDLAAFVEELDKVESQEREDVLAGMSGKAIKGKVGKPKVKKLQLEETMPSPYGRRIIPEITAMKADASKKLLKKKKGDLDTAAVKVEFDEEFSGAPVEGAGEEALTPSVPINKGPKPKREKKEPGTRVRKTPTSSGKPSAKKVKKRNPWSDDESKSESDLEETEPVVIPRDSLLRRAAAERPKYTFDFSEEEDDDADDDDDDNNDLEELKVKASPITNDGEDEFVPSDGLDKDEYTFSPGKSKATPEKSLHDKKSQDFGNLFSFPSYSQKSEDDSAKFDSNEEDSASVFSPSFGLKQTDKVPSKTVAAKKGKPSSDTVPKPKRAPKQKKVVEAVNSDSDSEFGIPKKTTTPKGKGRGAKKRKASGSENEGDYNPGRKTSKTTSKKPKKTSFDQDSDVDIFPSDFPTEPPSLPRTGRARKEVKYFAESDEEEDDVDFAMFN

Compound	TopIIβ Decat. (Topoisomerase IIβ [1])	TopI Relax. (Topoisomerase I [2])	TopIIβ Cleave. (Topoisomerase IIβ [3])	nicked DNA (Topoisomerase I [4]; at 100 μM)	TopI Cleave (Topoisomerase I [4])	IC50 at 24 h ([5]; CHO-ADR-1 cells, ADR line)	IC50 at 24 h ([5]; CHO-ADR-r cells, ADR line)	IC50 at 24 h ([5]; CHO-K1 cells)
C[C@H](N)C(=O)OCCCCNc1cccc2c1C(=O)c1ccccc1C2=O.O=C(O)C(F)(F)F [Example 43, 1-[4-(L-alanyloxy)butylamino]anthracene-9,10-dione trifluoroacetate]	25	25	25	20%	100	6.6 µM	25.2 µM	54 µM
C[C@@H](N)C(=O)OCCCCNc1cccc2c1C(=O)c1ccccc1C2=O.O=C(O)C(F)(F)F [Example 45, 1-[4-(D-alanyloxy)butylamino]anthracene-9,10-dione trifluoroacetate]	20	25	20	–	300	46.3 µM	31.5 µM	40.5 µM
